From ChEMBL document CHEMBL4428075, “New antiproliferative 7-(4-(N-substituted carbamoylmethyl)piperazin-1-yl) derivatives of ciprofloxacin induce cell cycle arrest at G2/M phase” (Bioorg Med Chem, 2016) come the findings set out here.

The source made the active and inactive calls. The rule behind the calls is not given here.

The subject of data set [1] is A549. As to the kind of experiment: Induction of cell cycle arrest in human A549 cells assessed as accumulation at G2/M phase at 5 uM after 24 hrs by FITC-labeled anti-BrdU antibody/7AAD staining based FACS calibur flow cytometric analysis (reference value: 12.61 %). In kind it is functional. (In general: A flow cytometer gives signals particle by particle.)
In data set [2] the test system is A549. Put plainly: Induction of cell cycle arrest in human A549 cells assessed as accumulation at S phase at 5 uM after 24 hrs by FITC-labeled anti-BrdU antibody/7AAD staining based FACS calibur flow cytometric analysis (reference value: 20.9 %). It is filed as functional.
Data set [3] deals with A549. Put plainly: Induction of cell cycle arrest in human A549 cells assessed as accumulation at sub G1 phase at 5 uM after 24 hrs by FITC-labeled anti-BrdU antibody/7AAD staining based FACS calibur flow cytometric analysis (reference value: 0.82 %). It is filed as functional.
For data set [4], the system named is A549. Put plainly: Induction of cell cycle arrest in human A549 cells assessed as accumulation at G1 phase at 10 uM after 24 hrs by FITC-labeled anti-BrdU antibody/7AAD staining based FACS calibur flow cytometric analysis (reference value: 65.9 %). In kind it is functional.
The test system of data set [5] is A549. As to the kind of experiment: Induction of cell cycle arrest in human A549 cells assessed as accumulation at S phase at 10 uM after 24 hrs by FITC-labeled anti-BrdU antibody/7AAD staining based FACS calibur flow cytometric analysis (reference value: 20.9 %). It is filed as functional.
The subject of data set [6] is A549. Put plainly: Induction of cell cycle arrest in human A549 cells assessed as accumulation at S phase at 15 uM after 24 hrs by FITC-labeled anti-BrdU antibody/7AAD staining based FACS calibur flow cytometric analysis (reference value: 20.9 %). In kind it is functional.
Data set [7] concerns A549. As to the kind of experiment: Induction of cell cycle arrest in human A549 cells assessed as accumulation at S phase at 25 uM after 24 hrs by FITC-labeled anti-BrdU antibody/7AAD staining based FACS calibur flow cytometric analysis (reference value: 20.9 %). In kind it is functional.
The subject of data set [8] is A549. As to the kind of experiment: Induction of cell cycle arrest in human A549 cells assessed as accumulation at sub G1 phase at 25 uM after 24 hrs by FITC-labeled anti-BrdU antibody/7AAD staining based FACS calibur flow cytometric analysis (reference value: 0.82 %). In kind it is functional.
In data set [9] the test system is A549. Put plainly: Upregulation of p21 expression in human A549 cells after 24 hrs by Western blot analysis. In kind it is functional, cell-based. (In general: Immunoblotting shows a protein as a band on a membrane.)
In data set [10] the test system is A549. As to the kind of experiment: Downregulation of cyclinB1 expression in human A549 cells after 24 hrs by Western blot analysis. It is filed as functional, cell-based.
The test system of data set [11] is A549. Put plainly: Downregulation of cdc2 expression in human A549 cells after 24 hrs by Western blot analysis. It is filed as functional, cell-based.
Data set [12] relates to WI-38. As to the kind of experiment: Upregulation of p21 expression in human WI38 cells at 5 to 25 uM after 24 hrs by Western blot analysis. As to conditions: wi-38, 24 h. In kind it is ADME, cell-based.
The test system of data set [13] is WI-38. As to the kind of experiment: Downregulation of cyclinB1 expression in human WI38 cells at 5 to 25 uM after 24 hrs by Western blot analysis. In kind it is ADME, cell-based. As to conditions: wi-38, 24 h.
For data set [14], the system named is A549. As to the kind of experiment: Induction of p21 expression in human A549 cells at 25 uM after 24 hrs in presence of PFTalpha by Western blot analysis. In kind it is functional, cell-based.
The subject of data set [15] is A549. Put plainly: Induction of cell cycle arrest in human A549 cells assessed accumulation at G2/M phase at 25 uM after 24 hrs by FITC-labeled anti-BrdU antibody/7AAD staining based FACS calibur flow cytometric analysis (reference value: 12%). It is filed as functional.
In data set [16] the test system is A549. Put plainly: Induction of cell cycle arrest in human A549 cells assessed accumulation at G2/M phase at 25 uM after 24 hrs in presence of PFTalpha by FITC-labeled anti-BrdU antibody/7AAD staining based FACS calibur flow cytometric analysis (reference value: 63.9%). It is filed as functional.

For `O=C(CN1CCN(c2cc3c(cc2F)c(=O)c(C(=O)O)cn3C2CC2)CC1)Nc1ccc(Cl)cc1`, the Activity with A549 [1] turned out to be 13.21%; in the data set with A549 [2], 16.2%; with A549 [3] it was 1.65%; in the data set on A549 [4], 58.5%; in the data set with A549 [5] it was 16.7%; with A549 [6], 19.8%. Moreover, the Activity was 10.5% in the data set with A549 [7]; 2.6% in the data set with A549 [8]; “Dose-dependent effect” in the data set with A549 [9]; “Dose-dependent effect” in the data set with A549 [10]; “Dose-dependent effect” in the data set on A549 [11]; “Non-Toxic” with WI-38 [12]. Further, the Activity entry in the data set with WI-38 [13] is given as “Non-Toxic”; in the data set on A549 [15] it was 63.9%; in the data set with A549 [16] it was 23.7%. The result in the data set with A549 [14] was inactive.
